Values quoted from earlier work, collected in article PMC10957545, “Anti-diabetic and anti-inflammatory bioactive hits from Coriaria intermedia Matsum. stem and Dracontomelon dao (Blanco) Merr. & Rolfe bark through bioassay-guided fractionation and liquid chromatography-tandem mass spectrometry” (Frontiers in Pharmacology, 2024).
In brackets after ≈: the same amount, converted by molar mass. Like-named read-outs stand apart in the source and are kept apart here.

What was measured:
[1] = tested on: streptozotocin-induced diabetic rats; set-up: method as in Nandini and Naik, 2019; settings: treated orally, end of the study; ref Nandini and Naik, 2019
[2] = tested on: proinflammatory cytokines and mediators; cyclooxygenase-2 expression; set-up: method as in Zhao et al., 2008, as cited in Li et al. (2018); settings: ref Zhao et al., 2008, as cited in Li et al. (2018)
[3] = tested on: spike receptor binding domain (spike-RBD) of SARS-CoV-2 virus / human angiotensin-converting enzyme 2 (hACE2); set-up: method as in Yang et al., 2021; settings: dose-dependent manner; ref Yang et al., 2021
[4] = tested on: different cancer cell lines; set-up: method as in Li et al., 2018; settings: both in vitro and in vivo; ref Li et al., 2018
[5] = tested on: normal cells or tissues
[6] = tested on: mice fed with a high fat diet (HFD); set-up: method as in Liao et al., 2022; settings: ref Liao et al., 2022
[7] = tested on: ovalbumin-induced asthmatic mice; set-up: method as in Jin and Yi, 2023; settings: via the AMP-activated protein kinase pathway; ref Jin and Yi, 2023
[8] = molecular target: α-glucosidase (AGLUC)
[9] = molecular target: 15-lipoxygenase-1 (LOX)
[10] = tested on: colon inflammation; set-up: method as in Guri et al., 2011; settings: abscisic acid intake; ref Guri et al., 2011
[11] = tested on: glucose uptake; set-up: method as in Xu et al., 2018; settings: ref Xu et al., 2018
[12] = tested on: neuroinflammation; set-up: method as in Jeon et al., 2020; settings: abscisic acid intake; ref Jeon et al., 2020
[13] = tested on: beta pancreatic cells; set-up: method as in Xu et al., 2018; settings: ref Xu et al., 2018
[14] = tested on: lipopolysaccharide (LPS)-induced nitric oxide (NO), prostaglandin E2 (PGE2), and interleukin-6 (IL-6) production; set-up: method as in BenSaad et al., 2017; settings: ref BenSaad et al., 2017
[15] = tested on: LPS-induced nuclear factor kappa B (NF-κB) activation; set-up: method as in Oh et al., 2010; settings: ref Oh et al., 2010
[16] = tested on: p38, ERK, and PI 3-kinase/Akt and ROS accumulation; set-up: method as in Moon et al., 2018; settings: ref Moon et al., 2018
[17] = tested on: α-amylase; set-up: method as in Kato et al., 2008; settings: at a concentration of 400 µM; ref Kato et al., 2008
[18] = tested on: sucrase; set-up: method as in Kato et al., 2008; settings: at a concentration of 400 µM; ref Kato et al., 2008
[19] = tested on: maltase; set-up: method as in Kato et al., 2008; settings: at a concentration of 400 µM; ref Kato et al., 2008
[20] = tested on: advanced glycation end products formation; set-up: method as in Jung et al., 2012; settings: ref Jung et al., 2012; read-out: inhibition of advanced glycation end products formation, IC50
[21] = isolated from Terminalia macroptera leaves, ref Pham et al., 2014

O=C(O[C@@H]1O[C@@H]2COC(=O)c3cc(O)c(O)c(O)c3-c3c(cc(O)c(O)c3O)C(=O)O[C@H]([C@H]1O)[C@@H]2O)c1cc(O)c(O)c(O)c1 [Compound 2, corilagin]
fasting blood glucose levels compared to diabetic control rats [1]: reduced | effect on cyclooxygenase-2 expression ([2]; protein and gene level): reduce | effect on production of proinflammatory cytokines and mediators [2]: significantly reduce | binding of spike-RBD to hACE2 [3]: inhibit | antitumor activities [4]: exhibit antitumor activities | toxic effects on normal cells or tissues [5]: almost no toxic effects | glucose intolerance and insulin resistance ([6]; HFD-fed mice): improve | plasma lipid concentrations ([6]; HFD-fed mice): improved | HFD-induced accumulation of fat in the liver and liver injury [6]: reduce | airway inflammation and collagen deposition [7]: reduce | IC50 [8, 21]: 2.58 ± 0.08 µM | IC50 [9, 21]: 41 ± 4 µM | IC50 LOX ([9]; µM value given in µg/mL, ref Pham et al., 2014): 26.01 ± 2.5 [Pham et al. (2014)] µg/mL

CC1=CC(=O)CC(C)(C)[C@@]1(O)/C=C/C(C)=C\C(=O)O [Compound 9, abscisic acid]
effect on colon inflammation [10]: reduces | effect on glucose uptake in vitro [11]: regulates | effect on neuroinflammation [12]: reduces | effect on insulin production in beta pancreatic cells [13]: can stimulate

O=c1oc2c(O)c(O)cc3c(=O)oc4c(O)c(O)cc1c4c23 [Compound 1, ellagic acid]
effect on LPS-induced NO, PGE2 and IL-6 production [14]: inhibition | IC50 AGLUC ([8]; previously reported, ref You et al., 2012): 2.18 [You et al. (2012)] µg/mL

O=c1c(O[C@@H]2O[C@H](CO)[C@H](O)[C@H](O)[C@H]2O)c(-c2ccc(O)c(O)c2)oc2cc(O)cc(O)c12 [hyperin, reference compound]
IC50 AGLUC ([8]; ref Zhang et al., 2013): 19.26 µg/mL (≈ 41.5 µM)

CCCCCCCC/C=C\CCCCCCCC(N)=O [Compound 6, oleamide]
IC50 AGLUC ([8]; ref Fang et al., 2022): 30.69 ± 1.47 [Fang et al. (2022)] µg/mL | effect on LPS-induced NF-κB activation [15]: inhibition | effect on p38, ERK, and PI 3-kinase/Akt and ROS accumulation [16]: suppression

Oc1cccc(O)c1O [Compound 14, pyrogallol]
IC50 LOX ([9]; mM value given in µg/mL, ref Yasumoto et al. (1970)): 1.097 × 10^3 [Yasumoto et al. (1970)] µg/mL | IC50 ([9]; ref Yasumoto, Yamamoto, and Mitsuda, 1970): 8700 µM

COc1cc2oc(=O)ccc2cc1O [Compound 4, isoscopoletin]
% inhibition of α-amylase [17]: 0.2% | % inhibition of sucrase [18]: 20.9% | % inhibition of maltase [19]: 32.2% | IC50 [20]: 18.8 ± 0.5 µM | IC50 ([9]; ref Deng et al., 2007): 15.1 µM | IC50 LOX ([9]; µM value given in µg/mL, ref Deng et al., 2007): 2.902 [Deng et al. (2007)] µg/mL
